Data as given in US11731941B2 (Exelixis, Inc., priority 2017, dated 2023).
In brackets after ≈: the same amount, converted by molar mass. Where a name gives a salt, the structure may show the parent alone.

What was measured:
[1] = aqueous equilibrium solubility by HPLC; type: physicochemical; conditions: for pH of the solubility solution: checked with pH paper; for solubility compared to malate salt of Compound 1: comparison in words; for aqueous solubility: distilled water, ambient temperature (about 25° C.), 24 hours, HPLC
Protocol: The HPLC method used to determine aqueous equilibrium solubility is outlined in Table 32.
HPLC solubility determination about 5 mg of each salt was added to a vial with distilled water (1 mL). These were stirred at ambient temperature (about 25° C.) for 24 hours. The solution was isolated by filtration through a 0.2 μm PTFE filter and was analyzed by HPLC for concentration. The pH of the solutions was checked with pH paper.

[2] = Dynamic Vapor Sorption (DVS) hygroscopicity; type: physicochemical; conditions: for XRPD analysis of the post DVS sample: physical form after DVS cycle; for hygroscopicity, European Pharmacopoeia classification: weight increase at 80% RH (25° C.)
Protocol: As used herein “the European Pharmacopoeia classification” is a system whereby a chemical Compound 1s classified based on hygroscopicity. The classification is determined according to Table 2: [table] Dynamic Vapor Sorption (DVS) was performed using a Hiden Analytical Instruments IGAsorp Vapor Sorption Balance. Approximately 30 mg of sample was placed into a wire mesh vapor sorption balance pan, loaded into the IGAsorp vapor sorption balance, and held at 25° C.±0.1° C. The sample was subjected to a step profile from 0 to 90% RH at 10% increments, followed by desorption from […] to 0% RH at 10% increments. The equilibrium criterion was set to 99.0% step completion within a minimum of 60 minutes and a maximum of 5 hours for each increment. The weight change during the sorption cycle was monitored, allowing for the hygroscopic nature of the sample to be determined. The data collection interval was in seconds.

[3] = initial development experiments (BCS classification, solubility, permeability); type: physicochemical; conditions: free base
[4] = humidity stress at 40° C./75% relative humidity; type: physicochemical; conditions: about 7 days
[5] = both forms of Compound 1 (S)-malate; comparison value, source not stated; cited from earlier work
[6] = listed as Compound 1 isethionate monohydrate

COc1cc2nccc(Oc3ccc(NC(=O)C4(C(=O)Nc5ccc(F)cc5)CC4)cc3)c2cc1OC [Form 14, N-{4-[(6,7-dimethoxyquinolin-4-yl)oxy]phenyl}-N′-(4-fluorophenyl) cyclopropane-1,1-dicarboxamide]
pH of the solubility solution ([1]; listed as Compound 1 pyruvate): about 3
solubility compared to malate salt of Compound 1 ([1]; listed as Compound 1 pyruvate): higher solubility
aqueous solubility ([1]; listed as Compound 1 pyruvate): about 0.133 mg/mL
total weight gain between 0% RH and 80% RH ([2]; DVS, 25° C., listed as Compound 1 pyruvate): 0.10 % w/w
XRPD analysis of the post DVS sample [2]: remained unchanged
hygroscopicity, European Pharmacopoeia classification ([2]; listed as Compound 1 pyruvate): non-hygroscopic

COc1cc2nccc(Oc3ccc(NC(=O)C4(C(=O)Nc5ccc(F)cc5)CC4)cc3)c2cc1OC [Compound 1, N-{4-[(6,7-dimethoxyquinolin-4-yl)oxy]phenyl}-N′-(4-fluorophenyl) cyclopropane-1,1-dicarboxamide]
BCS class [3]: BCS class II
solubility ([3]; in water): low solubility
% Weight Change [4]: −0.94%
XRPD after humidity stressing [4]: Form 1

COc1cc2nccc(Oc3ccc(NC(=O)C4(C(=O)Nc5ccc(F)cc5)CC4)cc3)c2cc1OC [Form 3, N-{4-[(6,7-dimethoxyquinolin-4-yl)oxy]phenyl}-N′-(4-fluorophenyl) cyclopropane-1,1-dicarboxamide]
XRPD after humidity stressing [4]: no form change
weight loss after humidity stressing [4]: 43.17%

COc1cc2nccc(Oc3ccc(NC(=O)C4(C(=O)Nc5ccc(F)cc5)CC4)cc3)c2cc1OC [Form 27, N-{4-[(6,7-dimethoxyquinolin-4-yl)oxy]phenyl}-N′-(4-fluorophenyl) cyclopropane-1,1-dicarboxamide]
pH of the solubility solution [1, 6]: about 2
solubility compared to malate salt of Compound 1 [1, 6]: much higher solubility
aqueous solubility [1, 6]: 195 µg/mL (≈ 389 µM)
plateau of water content between 10-50% RH ([2]; DVS isotherm, 1 mol. eq.): about 3.0±0.1 % w/w
total weight gain between 20% RH and 80% RH ([2]; DVS, 25° C.): about 2.4 % w/w
XRPD analysis of the post DVS sample [2]: remained unchanged
hygroscopicity, European Pharmacopoeia classification [2, 6]: hygroscopic

COc1cc2nccc(Oc3ccc(NC(=O)C4(C(=O)Nc5ccc(F)cc5)CC4)cc3)c2cc1OC [Compound 1 (S)-malate, S-malate salt of N-{4-[(6,7-dimethoxyquinolin-4-yl)oxy]phenyl}-N′-(4-fluorophenyl) cyclopropane-1,1-dicarboxamide]
hygroscopicity weight gain of comparator [5]: about 0.4 % w/w

COc1cc2nccc(Oc3ccc(NC(=O)C4(C(=O)Nc5ccc(F)cc5)CC4)cc3)c2cc1OC [Form 20, N-{4-[(6,7-dimethoxyquinolin-4-yl)oxy]phenyl}-N′-(4-fluorophenyl) cyclopropane-1,1-dicarboxamide]
pH of the solubility solution ([1]; listed as Compound 1 glutarate): about 3
aqueous solubility ([1]; listed as Compound 1 glutarate): 16 µg/mL (≈ 31.9 µM)
total weight gain between 0% RH and 80% RH ([2]; DVS, 25° C., listed as Compound 1 glutarate): 0.08 % w/w
hygroscopicity, European Pharmacopoeia classification ([2]; listed as Compound 1 glutarate): non-hygroscopic
